This assay is described as follows: Binding affinity to Hsp70 nucleotide binding domain in human BT474 cells.

Usually IC50 stands for the point on the concentration scale where inhibition reaches its midpoint. Low readings indicate greater potency, high ones weaker potency.

For the compound `N#Cc1ccc(COC[C@H]2O[C@@H](n3c(NCc4ccc(Cl)c(Cl)c4)nc4c(N)ncnc43)[C@H](O)[C@@H]2O)cc1` [adenosine-derived inhibitor (Grp78), 13], the IC50 amounted to 10.4 µM. This counts as double-digit micromolar.

For the origin of these results see BindingDB's records for doi:10.1021/jm100342z (Vernalis R&D, 2010).
